Data published in paper PMC4603696, “Discovery and characterization of novel small-molecule inhibitors targeting nicotinamide phosphoribosyltransferase” (Scientific Reports, 2015).
Where “and” joins values, the source holds several entries; their conditions need not be identical. Equal values may be shown once. Read-outs that look alike come from different tables or passages of the source.

Assays:
HepG2 cells [1] = test: Sulforhodamine B protein staining (SRB) assay in HepG2; assay type: cell-based, human; conditions: Homo sapiens
Protocol: (§1) Sulfor hod am ine B p rotei n st ai ning (SRB) assay
(§2) Cell pr oliferat ion was eva lua ted by sul for hod amine B pr ot ein st aini ng (SRB) assa y10-12.
(§3) Briefly, cel ls were se ede d int o 96-well pl ates, cul tur ed overni ght , and trea ted with correspond ing com poun ds for 72 h. Cells were the n fixe d with 10% trichl or oa cetic aci d and st ained with sul for hoda mine B (Sigm a). Sul for hoda mine B in the cells was di sso lved in 10 mmol/L Tris-HCl and was measured at 515 nm usi ng a multiw ell spect ropho tometer (VERSA max, Mol ecul ar Devi ces, Sunnyva le, CA). The inhi bi tion rat e on cell pr olif eratio n was cal culated for each well as (A515contr ol cells-A 515tr eated cells)/A515contr ol cells×100 % (A515:
(§4) OD va lue at 515 nm ). The averag e IC50 va lue s were de termine d by Logit method from at leas t t hr eei nde pe nde nt test s.

NAMPT [2] = biological target: T1, NAMPT (Homo sapiens, UniProt P43490); test: NAMPT activity assay by fluorescence of NMN derivative (HTS system), IC50 determination; assay type: biochemical; design: His-tag; made in house; host or cells: E. coli BL21-CodonPlus (DE3)-RIL; conditions: for IC50: recombinant human NAMPT, read-out: NAMPT IC50
T1 sequence (P43490 whole entry): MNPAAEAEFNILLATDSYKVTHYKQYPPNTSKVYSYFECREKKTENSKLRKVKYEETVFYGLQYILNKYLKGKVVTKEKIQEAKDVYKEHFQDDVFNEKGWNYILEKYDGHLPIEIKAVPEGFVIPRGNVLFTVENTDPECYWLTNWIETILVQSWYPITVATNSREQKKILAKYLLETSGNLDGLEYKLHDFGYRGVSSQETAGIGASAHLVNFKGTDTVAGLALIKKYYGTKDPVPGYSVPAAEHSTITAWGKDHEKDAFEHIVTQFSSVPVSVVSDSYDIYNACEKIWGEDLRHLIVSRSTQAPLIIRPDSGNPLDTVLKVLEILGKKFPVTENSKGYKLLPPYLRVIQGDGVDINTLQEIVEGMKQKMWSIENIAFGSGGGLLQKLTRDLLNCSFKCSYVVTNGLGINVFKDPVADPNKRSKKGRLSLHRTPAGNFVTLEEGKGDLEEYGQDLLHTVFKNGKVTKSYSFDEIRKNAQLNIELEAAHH

NAMPT [3] = biological target: T1, NAMPT; test: Cellular thermal shift assay (CETSA / […]) in intact HepG2 cells; assay type: cell-based; design: endogenous in cells; host or cells: HepG2; conditions: 62 °C
Huh7-C cells = test: CCK-8 assay in stem-like human hepatoma cell line Huh7-C; assay type: cell-based; conditions: Huh7-C, treated 60 h, read-out: CCK-8 assay in Huh7-C: IC50
Protocol: (§5) Cellc ount ing k it-8 (CCK-8) assa y
Cell vi ability was de termine d by ou r previ ous method9 usi ng the Cell Counting Kit-8 (CCK -8, […]
(§6) 10 μl CCK-8 sol ution was adde d to the cul ture medium and inc ub ated at 37 °C for 1 h. Th e absor banc e at 450 nm (A450) was de tected by a pl ate reade r. Each e xperi ment w as carr ied out i n t riplic ate i n thr ee r eplic ate w ells.

HepG2 cells [4] = test: Cell counting kit-8 (CCK-8) cell viability assay in HepG2; assay type: cell-based, human; conditions: HepG2, 48 hours treatment, read-out: CCK-8 assay in HepG2: IC50
Protocol: as §5
Cell vi ability was de termine d by ou r previ ous method9 usi ng the Cell Counting Kit-8 (CCK -8, Dojindo, Ja pa n). In hu man he pa tocellu lar carcinom a cell line HepG 2, cells were seede d in 96-well plate and starve d for ove r 12 h with se rum-free DMEM at 60~ 70% conf lue nc y, the n trea ted wit h com pounds or ve hicle for 24 h to 72 h accor ding to expe riment requi rement s. […]
as §6

NAMPT [5] = biological target: T1, NAMPT; test: Cellular thermal shift assay (CETSA / […]) in HepG2 cell lysate; assay type: binding; design: endogenous in cells; host or cells: HepG2
HCT116 cells = test: SRB assay in HCT116; assay type: cell-based; conditions: Homo sapiens, HCT-116; HCT116, SRB, 10-fold concentration gradient; read-out: anti-proliferation IC50, initial screen
Protocol: as §1, §2, §3, §4

A549 cells = test: SRB assay in A549; assay type: cell-based, human; conditions: Homo sapiens; A549, SRB, 10-fold concentration gradient; read-out: anti-proliferation IC50, initial screen
Protocol: as §1, §2, §3, §4

[6] = HepG2, 72 h, HepG2, second test, 2-fold concentration gradient, 72 hours, read-out: SRB assay in HepG2: IC50

Row | Structure (SMILES) | IC50 (NAMPT [2]; mean ± s.e.) | also measured
1 | O=C(/C=C/c1cccnc1)NCCCCC1CCN(C(=O)c2ccccc2)CC1 [FK866, reference compound] |  | IC50 (HepG2 cells [1]; [6]): 0.05 µM
2 | O=S(=O)(c1ccc(NC(=S)NCc2cccnc2)cc1)N1CCNCC1 [MS2] | 0.0845 ± 0.0075 µM | 
3 | O=S(=O)(Nc1ccccc1)c1ccc(NC(=S)NCc2cccnc2)cc1 [MS3] | 0.022 ± 0.0046 µM | 
4 | CN1CCN(S(=O)(=O)c2ccc(NC(=S)NCc3cccnc3)cc2)CC1 [MS4] | 0.0964 ± 0.0123 µM | 
5 | CC(=O)N1CCN(S(=O)(=O)c2ccc(NC(=S)NCc3cccnc3)cc2)CC1 [MS5, 1-(4-((4-acetylpiperazin-1-yl)sulfonyl)phenyl)-3-(pyridin-3-ylmethyl)thiourea] | 0.0405 ± 0.0018 µM | 
6 | O=S(=O)(c1ccc(NC(=S)NCc2cccnc2)cc1)N1CCN(c2ccccn2)CC1 [MS6, 1-(4-((4-(pyridin-2-yl)piperazin-1-yl)sulfonyl)phenyl)-3-(pyridin-3-ylmethyl)thiourea] | 0.0177 ± 0.0034 µM | 
7 | O=S(=O)(c1ccc(NC(=S)NCc2cccnc2)cc1)N1CCN(Cc2ccccc2)CC1 [MS7, 1-(4-((4-benzylpiperazin-1-yl)sulfonyl)phenyl)-3-(pyridin-3-ylmethyl)thiourea] | 0.00093 µM and 0.0009 µM | ITDRFCETSA of NAMPT in cell lysate versus intact cells (NAMPT [3]; lysate value relative to intact cells): no significant difference; ITDRFCETSA for NAMPT in intact cell, difference to MS1 (shifted to the right) (NAMPT [3]; intact cell): no less than 10 fold; IC50 (Huh7-C cells): 1060 ± 248 nM; IC50 (HepG2 cells [4]): 1270 nM; IC50 (HepG2 cells [4]; Homo sapiens, HepG2, 48 h): 1270 ± 158 nM; CETSA melting curve shift of NAMPT in cell lysate (NAMPT [5]; HepG2 cell lysate, 100 μM): large thermal shift; ITDRFCETSA for NAMPT in lysate, compared with MS1 (NAMPT [5]; cell lysate, 62 °C): shifted to the left; IC50 (HepG2 cells [1]; [6]): > 10 µM
8 | O=S(=O)(c1ccc(NC(=S)NCc2cccnc2)cc1)N1CCN(C2CCCCC2)CC1 [MS8, 1-(4-((4-cyclohexylpiperazin-1-yl)sulfonyl)phenyl)-3-(pyridin-3-ylmethyl)thiourea] | 0.0142 ± 0.0024 µM | 
9 | O=S(=O)(c1ccc(NC(=S)NCc2cccnc2)cc1)N1CCCC1 [MS9, 1-(pyridin-3-ylmethyl)-3-(4-(pyrrolidin-1-ylsulfonyl)phenyl)thiourea] | 0.0439 ± 0.0024 µM | 
10 | O=S(=O)(NCc1ccccc1)c1ccc(NC(=S)NCc2cccnc2)cc1 [MS10] | 0.0196 ± 0.0002 µM | 
11 | O=S(=O)(c1ccc(NC(=S)NCc2cccnc2)cc1)N1CCOCC1 [MS11] | 0.0217 ± 0.0008 µM | 
12 | CCOC(=O)N=C(NCc1cccnc1)Nc1ccc(S(=O)(=O)N2CCCCC2)cc1 [MS12] |  | IC50 (NAMPT [2]; values given in μM): > 166 µM
13 | O=C(c1ccc(NC(=S)NCc2cccnc2)cc1)N1CCCCC1 [MS15] | 0.0422 ± 0.0031 µM | 
14 | O=C(Nc1ccc(S(=O)(=O)N2CCCCC2)cc1)OCc1cccnc1 [MS17] | 0.0428 ± 0.004 µM | 
15 | N=C(NCc1cccnc1)Nc1ccc(S(=O)(=O)N2CCCCC2)cc1 [MS18] | 0.765 ± 0.0748 µM | 
16 | N=C(NCc1cccnc1)Nc1ccc(C(=O)N2CCCCC2)cc1 [MS19] | 14.5 ± 0.203 µM | IC50 (NAMPT [2]; values given in μM): 14.5 ± 0.2 µM
17 | CCOC(=S)Nc1ccc(C(=O)N2CCCCC2)cc1 [MS20] |  | inhibition on NAMPT activity (in words) (NAMPT [2]): no NAMPT inhibition; IC50 (NAMPT [2]; values given in μM): > 150 µM
18 | N#CN=C(NCc1cccnc1)Nc1ccc(S(=O)(=O)N2CCCC2)cc1 [MS21] | 0.577 ± 0.0387 µM | 
19 | O=S(=O)(c1ccc(NC(=S)NCc2cccnc2)cc1)N1CCN(Cc2ccc(F)cc2)CC1 [MS22] | 0.012 ± 0.0015 µM | 
20 | O=S(=O)(c1ccc(NC(=S)NCc2cccnc2)cc1)N1CCN(Cc2c(F)cccc2F)CC1 [MS23] | 0.0099 ± 0.0012 µM | IC50 (HCT116 cells): < 5 µM; IC50 (A549 cells): < 5 µM; IC50 (HepG2 cells [1]; [6]): > 10 µM; IC50 (HepG2 cells [1]; HepG2, HepG2, SRB, 10-fold concentration gradient, read-out: anti-proliferation IC50, initial screen): < 5 µM
21 | O=S(=O)(c1ccc(NC(=S)NCc2cccnc2)cc1)N1CCN(Cc2cccc(F)c2)CC1 [MS24] | 0.0089 ± 0.0005 µM | 
22 | O=S(=O)(c1ccc(NC(=S)NCc2cccnc2)cc1)N1CCN(Cc2ccccc2F)CC1 [MS25] | 0.0123 ± 0.002 µM | 
23 | Cc1ccc(CN2CCN(S(=O)(=O)c3ccc(NC(=S)NCc4cccnc4)cc3)CC2)cc1 [MS26] | 0.0105 ± 0.002 µM | 
